Laboratory results: ChEMBL document CHEMBL1201862, “PubChem BioAssay data set” (2004)
Active and inactive are the calls of the source.

Legend:
Streptokinase A = target: T1, Streptokinase A (Streptococcus pyogenes serotype M1, UniProt P10520); assay: viability-normalized secreted streptokinase activity reduction – plasminogen activation absorbance, OD405, dose response (AID 1914); format: functional, Streptococcus pyogenes M1 GAS;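 also: secreted streptokinase activity via plasminogen activation per viability signal from cell pellet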
T1 sequence (P10520 whole entry): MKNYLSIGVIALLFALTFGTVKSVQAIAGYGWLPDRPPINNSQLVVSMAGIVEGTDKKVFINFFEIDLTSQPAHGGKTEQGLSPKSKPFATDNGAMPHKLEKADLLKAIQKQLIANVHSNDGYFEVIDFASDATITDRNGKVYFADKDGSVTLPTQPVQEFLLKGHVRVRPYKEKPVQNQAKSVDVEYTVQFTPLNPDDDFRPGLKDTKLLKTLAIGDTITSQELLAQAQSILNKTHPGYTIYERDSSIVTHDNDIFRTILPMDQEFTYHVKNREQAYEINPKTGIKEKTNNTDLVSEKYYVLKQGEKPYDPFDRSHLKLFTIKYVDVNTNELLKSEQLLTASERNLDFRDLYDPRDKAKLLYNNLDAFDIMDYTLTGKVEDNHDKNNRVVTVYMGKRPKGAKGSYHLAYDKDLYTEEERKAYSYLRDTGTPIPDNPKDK

[1] = target: T2, Ubiquitin-conjugating enzyme E2 N (Homo sapiens, UniProt P61088); format: functional;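 also: Dose-response confirmation in a TR-FRET assay detecting UBC13-driven polyubiquitin chain formation, inhibition measured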
T2 sequence (P61088 whole entry): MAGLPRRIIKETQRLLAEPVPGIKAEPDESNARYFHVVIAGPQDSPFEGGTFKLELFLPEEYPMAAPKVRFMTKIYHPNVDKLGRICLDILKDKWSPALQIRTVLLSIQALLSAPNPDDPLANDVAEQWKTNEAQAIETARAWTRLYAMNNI

[2] = target: Intestinal-type alkaline phosphatase (Mus musculus, UniProt P24822); assay: PubChem AID 488785; format: functional
Nonstructural protein 1 = Nonstructural protein 1 (Influenza A virus, UniProt Q194T2); format: functional, Influenza A virus (A/California/07/2009(H1N1))
[3] = target: Lysine-specific demethylase 4C (Homo sapiens, UniProt Q9H3R0); assay: inhibition of JMJD2C H3K9me3 demethylation – biochemical, DELFIA europium, cherry-picked samples, dose response (AID 488835); format: functional
[4] = viability loss in HeLa cells – cytotoxicity control for MgcRacGAP inhibitor project, dose response (AID 624300); format: functional
Caspase-6 = target: T3, Caspase-6 (Homo sapiens, UniProt P55212); assay: inhibition of CASP6 peptide cleavage – biochemical, VEID-R110 fluorescence, cherry-pick, dose response (AID 720632)
T3 sequence (P55212 whole entry): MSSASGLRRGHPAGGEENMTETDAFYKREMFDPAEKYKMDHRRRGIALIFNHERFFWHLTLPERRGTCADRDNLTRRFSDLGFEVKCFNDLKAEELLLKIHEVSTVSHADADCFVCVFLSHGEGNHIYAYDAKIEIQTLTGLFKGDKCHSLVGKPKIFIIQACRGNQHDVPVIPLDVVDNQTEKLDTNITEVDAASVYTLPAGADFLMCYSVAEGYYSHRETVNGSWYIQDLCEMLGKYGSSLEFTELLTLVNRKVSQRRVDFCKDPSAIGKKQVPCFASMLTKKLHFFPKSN

[5] = target: T4, Histone-lysine N-methyltransferase NSD2 (Homo sapiens, UniProt O96028); format: biochemical
T4 sequence (O96028 whole entry): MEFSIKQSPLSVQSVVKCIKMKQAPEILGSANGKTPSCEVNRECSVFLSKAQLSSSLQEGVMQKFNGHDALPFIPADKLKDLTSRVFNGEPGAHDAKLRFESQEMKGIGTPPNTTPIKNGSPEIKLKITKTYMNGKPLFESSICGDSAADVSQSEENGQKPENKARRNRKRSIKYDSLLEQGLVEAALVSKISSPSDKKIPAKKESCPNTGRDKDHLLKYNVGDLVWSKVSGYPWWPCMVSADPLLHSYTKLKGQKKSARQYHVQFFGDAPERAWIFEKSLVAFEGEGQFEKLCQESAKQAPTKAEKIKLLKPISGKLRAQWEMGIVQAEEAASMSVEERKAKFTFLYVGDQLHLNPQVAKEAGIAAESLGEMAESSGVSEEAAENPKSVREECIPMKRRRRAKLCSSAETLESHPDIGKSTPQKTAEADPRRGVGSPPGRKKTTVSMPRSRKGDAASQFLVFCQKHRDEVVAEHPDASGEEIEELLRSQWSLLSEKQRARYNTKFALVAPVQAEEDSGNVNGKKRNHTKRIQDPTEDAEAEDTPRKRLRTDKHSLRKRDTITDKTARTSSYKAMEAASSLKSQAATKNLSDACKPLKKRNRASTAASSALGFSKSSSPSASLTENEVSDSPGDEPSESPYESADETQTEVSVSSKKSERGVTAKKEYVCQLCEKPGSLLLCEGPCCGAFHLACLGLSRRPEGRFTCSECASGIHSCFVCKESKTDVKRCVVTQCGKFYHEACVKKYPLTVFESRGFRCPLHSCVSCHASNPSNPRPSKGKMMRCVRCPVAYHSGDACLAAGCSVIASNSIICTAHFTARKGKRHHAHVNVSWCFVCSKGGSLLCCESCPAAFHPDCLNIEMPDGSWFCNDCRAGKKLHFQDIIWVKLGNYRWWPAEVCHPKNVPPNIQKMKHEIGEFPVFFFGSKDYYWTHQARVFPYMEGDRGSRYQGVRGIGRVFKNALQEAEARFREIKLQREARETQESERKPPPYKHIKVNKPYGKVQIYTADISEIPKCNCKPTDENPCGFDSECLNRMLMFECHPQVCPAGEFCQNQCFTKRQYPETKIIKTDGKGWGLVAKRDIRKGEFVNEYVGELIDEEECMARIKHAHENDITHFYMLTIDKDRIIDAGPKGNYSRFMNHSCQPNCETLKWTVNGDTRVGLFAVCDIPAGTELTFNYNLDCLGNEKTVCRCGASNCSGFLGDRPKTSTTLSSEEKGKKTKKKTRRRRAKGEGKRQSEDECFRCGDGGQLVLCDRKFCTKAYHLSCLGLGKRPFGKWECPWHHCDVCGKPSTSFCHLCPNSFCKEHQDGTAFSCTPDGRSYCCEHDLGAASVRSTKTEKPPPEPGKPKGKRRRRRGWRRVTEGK

Chain of Intestinal-type alkaline phosphatase (P24822 whole entry): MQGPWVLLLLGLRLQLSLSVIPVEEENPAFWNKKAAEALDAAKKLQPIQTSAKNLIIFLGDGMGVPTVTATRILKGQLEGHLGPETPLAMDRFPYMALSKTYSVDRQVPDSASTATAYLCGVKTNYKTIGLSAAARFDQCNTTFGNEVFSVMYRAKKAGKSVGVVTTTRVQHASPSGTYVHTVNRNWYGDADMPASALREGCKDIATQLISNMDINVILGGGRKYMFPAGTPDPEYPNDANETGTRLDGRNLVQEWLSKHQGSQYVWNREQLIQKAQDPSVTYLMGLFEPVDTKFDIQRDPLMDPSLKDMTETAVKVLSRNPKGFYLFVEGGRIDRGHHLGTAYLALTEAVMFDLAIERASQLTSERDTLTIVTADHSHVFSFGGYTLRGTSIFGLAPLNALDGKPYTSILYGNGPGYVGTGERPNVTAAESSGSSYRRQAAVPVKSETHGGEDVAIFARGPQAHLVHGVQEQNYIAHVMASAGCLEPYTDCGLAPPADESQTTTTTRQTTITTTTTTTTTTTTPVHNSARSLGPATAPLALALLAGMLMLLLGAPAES
Chain of Lysine-specific demethylase 4C (Q9H3R0 whole entry): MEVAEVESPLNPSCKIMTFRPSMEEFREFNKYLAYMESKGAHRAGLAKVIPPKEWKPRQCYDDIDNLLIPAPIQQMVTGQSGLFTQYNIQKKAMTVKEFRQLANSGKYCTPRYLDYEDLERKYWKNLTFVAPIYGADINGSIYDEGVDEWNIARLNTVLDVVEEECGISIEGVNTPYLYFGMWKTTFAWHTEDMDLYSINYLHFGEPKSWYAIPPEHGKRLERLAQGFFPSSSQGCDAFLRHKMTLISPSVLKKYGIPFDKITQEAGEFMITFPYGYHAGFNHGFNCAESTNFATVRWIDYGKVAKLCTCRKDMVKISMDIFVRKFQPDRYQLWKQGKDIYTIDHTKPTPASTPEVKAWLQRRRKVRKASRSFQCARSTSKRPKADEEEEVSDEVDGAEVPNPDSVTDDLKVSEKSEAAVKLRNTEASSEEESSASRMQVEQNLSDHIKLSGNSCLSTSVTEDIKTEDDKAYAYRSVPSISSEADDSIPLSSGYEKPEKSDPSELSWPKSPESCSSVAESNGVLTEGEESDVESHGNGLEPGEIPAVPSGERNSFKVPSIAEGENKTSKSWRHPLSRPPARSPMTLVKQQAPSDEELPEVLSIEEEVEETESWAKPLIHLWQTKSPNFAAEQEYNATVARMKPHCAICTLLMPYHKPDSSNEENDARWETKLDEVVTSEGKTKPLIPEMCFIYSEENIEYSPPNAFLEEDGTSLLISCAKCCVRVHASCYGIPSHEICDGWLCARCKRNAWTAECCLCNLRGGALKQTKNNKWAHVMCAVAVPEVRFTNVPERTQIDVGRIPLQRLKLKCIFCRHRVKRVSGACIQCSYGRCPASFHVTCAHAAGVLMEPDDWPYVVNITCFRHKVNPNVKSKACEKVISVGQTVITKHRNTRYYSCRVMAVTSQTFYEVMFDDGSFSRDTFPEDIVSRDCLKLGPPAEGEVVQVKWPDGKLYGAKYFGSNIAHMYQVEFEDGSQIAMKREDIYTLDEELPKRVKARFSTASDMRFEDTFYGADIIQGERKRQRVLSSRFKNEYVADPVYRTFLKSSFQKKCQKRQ
Chain of Nonstructural protein 1 (Q194T2 whole entry): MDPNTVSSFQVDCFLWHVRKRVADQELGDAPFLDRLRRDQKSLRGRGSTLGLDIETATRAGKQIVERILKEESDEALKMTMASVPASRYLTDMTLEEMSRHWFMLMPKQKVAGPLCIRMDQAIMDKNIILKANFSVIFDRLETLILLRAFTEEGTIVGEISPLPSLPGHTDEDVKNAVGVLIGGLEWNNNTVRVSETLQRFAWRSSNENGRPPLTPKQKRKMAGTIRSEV

| Compound | EC50 (Streptokinase A) | IC50 [1] | IC50 [2] | IC50 (Nonstructural protein 1) | AC50 [3] | CC50 [4] | AC50 (Caspase-6) | AC50 [5] |
| --- | --- | --- | --- | --- | --- | --- | --- | --- |
| CCCCCCCCCCOC(=O)C[n+]1c(COc2ccccc2OC)n(C)c2ccccc21 | > 150 µM (not active) | 15.6 µM (active) | – | – | – | – | – | – |
| O=c1ccc2c(-c3ccccc3S(=O)(=O)O)c3ccc(O)c(O)c3oc-2c1O [PYROGALLOL RED] | – | – | 12.4 µM (active) | 13.5 µM (active) | 1.78 µM (active) | 100 µM (active) | 0.192 µM (active) | 0.146 µM (active) |
